Results taken from PubChem BioAssay (NCI).
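Interpolation was linear, between the two tested concentrations surrounding the appropriate level; five concentrations were tested over 48 hours in 96-well plates. Abbreviation: GI50, concentration required for 50% inhibition of growth. The concentration for full growth arrest is given as TGI.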

Legend:
Experiment in all cases: DTP human tumour cell line panel, 48 h
[1] = tested on: 786-0 renal
[2] = tested on: UO-31 renal
[3] = tested on: MCF7 breast
[4] = tested on: HCT-116 colon
[5] = tested on: NCI-H460 lung
[6] = tested on: RXF 393 renal
[7] = tested on: RPMI-8226 leukemia
[8] = tested on: SK-OV-3 ovarian
[9] = tested on: K-562 leukemia
[10] = tested on: NCI-H522 lung
[11] = tested on: MDA-MB-231 breast
[12] = tested on: IGROV1 ovarian
[13] = tested on: UACC-257 melanoma
[14] = tested on: EKVX NSCLC
[15] = tested on: HT29 colon
[16] = tested on: KM12 colon
[17] = tested on: U251 CNS
[18] = tested on: T-47D breast
[19] = tested on: SNB-75 CNS
[20] = tested on: SW-620 colon
[21] = tested on: A549 NSCLC
[22] = tested on: HOP-62 NSCLC
[23] = tested on: HOP-92 NSCLC
[24] = tested on: SR leukemia
[25] = tested on: SN12C renal
[26] = tested on: DU-145 prostate
[27] = tested on: UACC-62 melanoma
[28] = tested on: OVCAR-4 ovarian
[29] = tested on: M14 melanoma
[30] = tested on: SF-295 CNS
[31] = tested on: TK-10 renal
[32] = tested on: HS 578T breast
[33] = tested on: BT-549 breast
[34] = tested on: NCI-H226 lung
[35] = tested on: A498 renal
[36] = tested on: CCRF-CEM leukemia
[37] = tested on: OVCAR-3 ovarian
[38] = tested on: LOX IMVI melanoma
[39] = tested on: SNB-19 CNS
[40] = tested on: SK-MEL-28 melanoma
[41] = tested on: SK-MEL-2 melanoma
[42] = tested on: NCI/ADR-RES ovarian
[43] = tested on: SK-MEL-5 melanoma
[44] = tested on: MOLT-4 leukemia
[45] = tested on: MDA-MB-435
[46] = tested on: HCT-15 colon
[47] = tested on: SF-268 CNS
[48] = tested on: NCI-H23 lung
[49] = tested on: OVCAR-5 ovarian
[50] = tested on: OVCAR-8 ovarian
[51] = tested on: PC-3 prostate
[52] = tested on: HCC-2998 colon
[53] = tested on: HL-60(TB) leukemia
[54] = tested on: MALME-3M melanoma
[55] = tested on: SF-539 CNS
[56] = tested on: COLO 205 colon
[57] = tested on: CAKI-1 renal
[58] = tested on: ACHN renal

`COc1cc(C)[nH]c(=O)c1CNC(=O)c1c(C)n([C@H](C)C2CCN(CC(F)(F)F)CC2)c2ccccc12` showed a GI50 [1] of 60.3 µM, a TGI [1] of over 100 µM and a GI50 [2] of 28.2 µM. For the same compound, the TGI [2] was over 100 µM, the GI50 [3] was 25.7 µM and the TGI [3] was over 100 µM. The GI50 [4] was 59.3 µM, the TGI [4] was over 100 µM and the GI50 [5] was 42.9 µM. It also gave a TGI [5] of over 100 µM, a GI50 [6] of 21.7 µM and a TGI [6] of 99.5 µM. The GI50 [7] was 32.5 µM, the TGI [7] was over 100 µM and the GI50 [8] was 51.8 µM. The TGI [8] was over 100 µM, the GI50 [9] was 48.5 µM and the TGI [9] was over 100 µM. The GI50 [10] was 80.3 µM, the TGI [10] was over 100 µM and the GI50 [11] was 51 µM. The TGI [11] was over 100 µM, the GI50 [12] was 49.2 µM and the TGI [12] was over 100 µM. For the same compound, the GI50 [13] was 54.2 µM, the TGI [13] was over 100 µM and the GI50 [14] was 37.5 µM. It also gave a TGI [14] of over 100 µM, a GI50 [15] of 38.5 µM and a TGI [15] of over 100 µM. The GI50 [16] was 41.6 µM, the TGI [16] was over 100 µM and the GI50 [17] was 90.6 µM. For the same compound, the TGI [17] was over 100 µM, the GI50 [18] was 25.9 µM and the TGI [18] was over 100 µM. The GI50 [19] was 36.1 µM, the TGI [19] was over 100 µM and the GI50 [20] was 65.3 µM. For the same compound, the TGI [20] was over 100 µM, the GI50 [21] was 87.4 µM and the TGI [21] was over 100 µM. It also gave a GI50 [22] of over 100 µM, a TGI [22] of over 100 µM and a GI50 [23] of 78.5 µM. The TGI [23] was over 100 µM, the GI50 [24] was 51.8 µM and the TGI [24] was over 100 µM. For the same compound, the GI50 [25] was 43 µM, the TGI [25] was over 100 µM and the GI50 [26] was 57.8 µM. The TGI [26] was over 100 µM, the GI50 [27] was 32.5 µM and the TGI [27] was over 100 µM. It also gave a GI50 [28] of 41.7 µM, a TGI [28] of over 100 µM and a GI50 [29] of 67.8 µM. For the same compound, the TGI [29] was over 100 µM, the GI50 [30] was 31.8 µM and the TGI [30] was over 100 µM. It also gave a GI50 [31] of 88.5 µM, a TGI [31] of over 100 µM and a GI50 [32] of 95.3 µM. The TGI [32] was over 100 µM, the GI50 [33] was 33.6 µM and the TGI [33] was over 100 µM. It also gave a GI50 [34] of 34.4 µM, a TGI [34] of over 100 µM and a GI50 [35] of 28.2 µM. It also gave a TGI [35] of over 100 µM, a GI50 [36] of 50.4 µM and a TGI [36] of over 100 µM. It also gave a GI50 [37] of 43.3 µM, a TGI [37] of over 100 µM and a GI50 [38] of 41.6 µM. For the same compound, the TGI [38] was over 100 µM, the GI50 [39] was 74.5 µM and the TGI [39] was over 100 µM. It also gave a GI50 [40] of 60.8 µM, a TGI [40] of over 100 µM and a GI50 [41] of 47.3 µM. It also gave a TGI [41] of over 100 µM, a GI50 [42] of 77.2 µM and a TGI [42] of over 100 µM. It also gave a GI50 [43] of 19 µM, a TGI [43] of 54.4 µM and a GI50 [44] of 35.9 µM. The TGI [44] was over 100 µM, the GI50 [45] was 46 µM and the TGI [45] was over 100 µM. It also gave a GI50 [46] of 44 µM, a TGI [46] of over 100 µM and a GI50 [47] of 80.6 µM. For the same compound, the TGI [47] was over 100 µM, the GI50 [48] was over 100 µM and the TGI [48] was over 100 µM. For the same compound, the GI50 [49] was over 100 µM, the TGI [49] was over 100 µM and the GI50 [50] was over 100 µM. The TGI [50] was over 100 µM, the GI50 [51] was 47.4 µM and the TGI [51] was over 100 µM. It also gave a GI50 [52] of over 100 µM, a TGI [52] of over 100 µM and a GI50 [53] of 28.5 µM. For the same compound, the TGI [53] was 82.9 µM, the GI50 [54] was 87.8 µM and the TGI [54] was over 100 µM. It also gave a GI50 [55] of 67.4 µM and a TGI [55] of over 100 µM.

For `N=c1oc2cc(O)ccc2cc1C(=O)Nc1cccc2ccccc12`, the TGI [1] was 17.3 µM, the TGI [2] was 19.9 µM and the TGI [3] was 17.8 µM. It also gave a TGI [4] of 14.7 µM, a TGI [5] of 30.2 µM and a TGI [6] of 18.7 µM. The TGI [7] was over 100 µM, the TGI [8] was 27.6 µM and the TGI [9] was over 42.7 µM. It also gave a TGI [10] of 7.47 µM, a TGI [56] of 34.6 µM and a TGI [11] of 10.1 µM. It also gave a TGI [12] of 14.4 µM, a TGI [13] of 41.2 µM and a TGI [14] of 14.6 µM. For the same compound, the TGI [15] was 26.9 µM, the TGI [16] was over 36.2 µM and the TGI [17] was 12.4 µM. It also gave a TGI [18] of 19.6 µM, a TGI [19] of 13.9 µM and a TGI [20] of 45.9 µM. It also gave a TGI [21] of 23.2 µM, a TGI [22] of over 44 µM and a TGI [23] of 14.5 µM. It also gave a TGI [24] of 7.83 µM, a TGI [25] of 18.9 µM and a TGI [26] of 20 µM. For the same compound, the TGI [27] was 14.3 µM, the TGI [28] was over 51.1 µM and the TGI [29] was 60 µM. The TGI [30] was 23.2 µM, the TGI [31] was 7.68 µM and the TGI [32] was over 100 µM. It also gave a TGI [33] of 11.5 µM, a TGI [34] of 16.6 µM and a TGI [35] of 18.7 µM. For the same compound, the TGI [36] was over 20.4 µM, the TGI [37] was over 27.9 µM and the TGI [38] was 18.4 µM. It also gave a TGI [39] of 35.4 µM, a TGI [40] of 34.4 µM and a TGI [42] of 4.43 µM. The TGI [43] was 15.8 µM, the TGI [57] was 24.8 µM and the TGI [44] was over 35.4 µM. For the same compound, the TGI [45] was 6.54 µM, the TGI [46] was 11.5 µM and the TGI [47] was 57.2 µM. It also gave a TGI [48] of 12.9 µM, a TGI [49] of 36.3 µM and a TGI [50] of 18.3 µM. The TGI [51] was 10.2 µM, the TGI [52] was 12.9 µM and the TGI [58] was 15.9 µM. The TGI [53] was 10.7 µM and the TGI [54] was 15.5 µM.
